How the values were obtained:
[1] = system: K562 human chronic myeloid leukemia cells; assay: CCK-8 proliferation inhibition, K562; assay type: cell-based; conditions: Homo sapiens; for inhibition at 10 µM: K562, 10 μM; for inhibition at 100 µM: K562, 100 μM
Summary of the method: (§1)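 Cells are exposed to compound at two concentrations, 100 μM and 10 μM. Viability is then read by CCK-8, and the inhibition rate is calculated for each dose.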

[2] = system: MDA-MB-435s human breast cancer cells; assay: CCK-8 proliferation inhibition, MDA-MB-435s; assay type: cell-based; conditions: Homo sapiens, MDA-MB-435S, CCK-8 method; for inhibition at 10 µM: compound concentration 10 μM; for inhibition at 100 µM: compound concentration 100 μM
Summary of the method: as §1

[3] = system: A549 human lung cancer cells; assay: CCK-8 proliferation inhibition, A549; assay type: cell-based; conditions: Homo sapiens, A549, CCK-8 method; for inhibition at 10 µM: compound concentration 10 μM; for inhibition at 100 µM: compound concentration 100 μM
Summary of the method: as §1

[4] = system: PC-3 human prostate cancer; assay: CCK-8 proliferation inhibition, PC-3; assay type: cell-based; conditions: Homo sapiens, CCK-8 method; for inhibition at 10 µM: compound concentration 10 μM; for inhibition at 100 µM: compound concentration 100 μM
Summary of the method: as §1

[5] = system: Hep3B2.1-7 human liver cancer cells; assay: CCK-8 proliferation inhibition, Hep3B2.1-7; assay type: cell-based; conditions: Homo sapiens, Hep3B, CCK-8 method; for inhibition at 10 µM: compound concentration 10 μM; for inhibition at 100 µM: compound concentration 100 μM
Summary of the method: as §1

[6] = system: Colo320 human rectal cancer cells; assay: CCK-8 proliferation inhibition, Colo320; assay type: cell-based; conditions: Homo sapiens, COLO 320, CCK-8 method; for inhibition at 10 µM: compound concentration 10 μM; for inhibition at 100 µM: compound concentration 100 μM
Summary of the method: as §1

[7] = system: Hut78 T-cell Leukemia cell; assay: CCK-8 proliferation inhibition, Hut78; assay type: cell-based; conditions: Homo sapiens, read-out: Hut-78 (inhibition %); for inhibition at 10 µM: HuT78, 10 μM; for inhibition at 100 µM: HuT78, 100 μM
Summary of the method: as §1

histone deacetylase = assay: in vitro inhibition of histone deacetylase by HDAC inhibitor screening kit (Biovision K340-100); assay type: biochemical
Protocol: An assay for determining the in vitro inhibition activity of the compound on histone deacetylase is conducted according to the specification of HDAC inhibitor screeing kid (Biovision Company/Catalog #K340-100). […]

[8] = system: Jurkat E6-1 human T-cell lymphoma; assay: CCK-8 proliferation inhibition, Jurkat E6-1; assay type: cell-based; conditions: Homo sapiens; for inhibition at 10 µM: Jurkat E6.1, 10 μM; for inhibition at 100 µM: Jurkat E6.1, 100 μM
Summary of the method: as §1

[9] = system: PANC-1 human pancreatic cancer cells; assay: CCK-8 proliferation inhibition, PANC-1; assay type: cell-based; conditions: Homo sapiens; for inhibition at 10 µM: PANC-1, 10 μM; for inhibition at 100 µM: PANC-1, 100 μM
Summary of the method: as §1

Compound | inhibition at 10 µM [1] [%] | inhibition at 100 µM [1] [%] | inhibition at 10 µM [2] [%] | inhibition at 100 µM [2] [%] | inhibition at 10 µM [3] [%] | inhibition at 100 µM [3] [%] | inhibition at 10 µM [4] [%] | inhibition at 100 µM [4] [%] | inhibition at 10 µM [5] [%] | inhibition at 100 µM [5] [%] | inhibition at 10 µM [6] [%] | inhibition at 100 µM [6] [%] | inhibition at 10 µM [7] [%] | inhibition at 100 µM [7] [%] | Inhibition rate(%) (histone deacetylase; 3.91 μM) | Inhibition rate(%) (histone deacetylase; 62.5 μM) | Inhibition rate(%) (histone deacetylase; 2 mM) | inhibition at 10 µM [8] [%] | inhibition at 100 µM [8] [%] | inhibition at 10 µM [9] [%] | further results
COc1cc(COC(=O)NCc2ccc(C(=O)Nc3ccncc3N)cc2)cc(OC)c1OC [V-14] | 45 | 62.1 | 9.4 | 82.9 | -4.4 | 40.1 | 13.7 | 57.4 | 3.7 | 31.3 | 6.4 | 23.3 | 8.1 | 47.5 | 12.0 | 32.9 | 77.2 | 25.3 | 72.8 | 13 | inhibition at 100 µM [9]: 19%
COc1cccc(/C=C/C(=O)NCc2ccc(C(=O)Nc3cccnc3N)cc2)c1 [V-91, N-(2-amino-3-pyridyl)-4-[(3-methoxycinnamoyl)aminomethyl]benzamide] | 37.4 | 81.6 | 25.9 | 71.2 | 17.7 | 48.9 | 7.9 | 24.2 | 7.8 | 63.6 | 9.6 | 27.6 | 26.8 | 68.3 | 10.1 | 47.8 | 81.8 | 23.7 | 89.9 | 2.4 | inhibition at 100 µM [9]: 8.5%
COc1ccc(/C=C/C(=O)NCc2ccc(C(=O)Nc3cccnc3N)cc2)cc1OC [V-93, N-(2-amino-3-pyridyl)-4-[(3,4-dimethoxycinnamoyl)aminomethyl]benzamide] | 23.7 | 67.3 | 16.3 | 48.5 | -2.5 | 3.4 | 41.6 | 80.6 | 4.9 | 26.8 | 6.1 | 13.1 | 27.2 | 64.7 | 14.3 | 48.0 | 55.3 | 23.4 | 93.1 | 9.8 | inhibition at 100 µM [9]: 16.6%
COc1ccc(/C=C/C(=O)NCc2ccc(C(=O)Nc3ccncc3N)cc2)cc1 [V-30] | 60.9 | 83.4 | 18 | 81.4 | 21.8 | 69.9 | 44.6 | 69 | 38.3 | 69.2 | 5.4 | 40.8 | 42.3 | 71.8 | 28.2 | 56.9 | 67.5 | 83.1 | 88.2 | 12.3 | inhibition at 100 µM [9]: 39.4%
COc1ccc(COC(=O)NCc2ccc(C(=O)Nc3ccncc3N)cc2)cc1OC [V-96] | 41.1 | 61.6 | 1.9 | 69.6 | -6.2 | 33.4 | 27.8 | 53.3 | -0.9 | 35.2 | -0.8 | 27 | -0.4 | 41.7 | 14.0 | 42.2 | 85.0 | 15.4 | 83.4 | -0.4 | inhibition at 100 µM [9]: 64.8%
Cc1ccc(/C=C/C(=O)NCc2ccc(C(=O)Nc3ccncc3N)cc2)cc1 [V-28] | 64.3 | 92.9 | 25.2 | 88.8 | 17.1 | 96.4 | 48.1 | 75.5 | 23.5 | 60 | 6.5 | 58.8 | 44.4 | 85.7 | 30.4 | 56.8 | 66.0 | 84.8 | 89.4 | -1.7 | inhibition at 100 µM [9]: 52%
Nc1cnccc1NC(=O)c1ccc(CNC(=O)OCc2ccccc2)cc1 [V-7] | 51 | 85.1 | 4.5 | 85.5 | -7.8 | 72.3 | 0.6 | 36.9 | -12.3 | 59.2 | -7.1 | 47.2 | 18.2 | 72.9 | 9.5 | 36.0 | 78.2 | 27.1 | 96 | 5.7 | inhibition at 100 µM [9]: 5.5%
Nc1ncccc1NC(=O)c1ccc(CNC(=O)/C=C/c2cccnc2)cc1 [V-42, N-(2-amino-3-pyridyl)-4-[(3-pyridylacryloyl)aminomethyl]benzamide] | 27.9 | 67.7 | 24.2 | 89.2 | 56.3 | 88.8 | 81.4 | 89.4 | 21.2 | 58.8 | 26.3 | 77 | 28.2 | 55.8 | 11.4 | 40.2 | 82.4 | 62.4 | 93.7 | 20.8 | inhibition at 100 µM [9]: 50.6%
COc1cc(COC(=O)NCc2ccc(C(=O)Nc3cccnc3N)cc2)cc(OC)c1OC [V-13, N-(2-amino-3-pyridyl)-4-[(3,4,5-trimethoxybenzyloxyacyl)aminomethyl]benzamide] | -2.8 | 30.3 | -11.9 | 11.8 | 24.6 | 42.3 | 5.1 | 19.3 | 27 | 26.2 | 4.4 | 4.2 | 10.8 | 24 | 1.9 | 7.8 | 50.0 | 0.9 | 22.8 | 22.3 | inhibition at 100 µM [9]: 26.4%
COc1cccc(COC(=O)NCc2ccc(C(=O)Nc3ccncc3N)cc2)c1 [V-95] | 50.6 | 71.9 | 4.2 | 72.5 | -12.6 | 48.3 | 30.6 | 80 | 16.7 | 72 | -1.9 | 68.8 | 8 | 58 | 17.2 | 46.7 | 90.6 | 21.6 | 93.8 | 7 | inhibition at 100 µM [9]: 48.7%
Nc1cnccc1NC(=O)c1ccc(CNC(=O)/C=C/c2ccccc2)cc1 [V-26] | 58.5 | 87.5 | 22.7 | 81.4 | 9.5 | 79.1 | 45.2 | 72.2 | 13.8 | 75.1 | 7.7 | 56.3 | 39.9 | 82.3 | 24.8 | 56.8 | 58.6 | 76.6 | 95.7 | 0.9 | inhibition at 100 µM [9]: 23.9%
